Patent US11298363B2, “Triazolobenzazepines as vasopressin V1a receptor antagonists” (RICHTER GEDEON NYRT., priority 2017, dated 2022)

How the values were obtained:
[1] = biological target: T1, human vasopressin V1a receptor (Homo sapiens, UniProt P37288); test: Human vasopressin V1a receptor binding assay; details: 1321N1 cell membranes, [3H]vasopressin; read-out: Ki (nM) on hV1a cell line
How it was run: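 Radioligand competition on membranes from cells expressing human V1a receptor; incubation 60 minutes at 27° C., non-specific binding with 1.2×10^−6 M unlabeled (Arg^8)-vasopressin, filtration separation. Ki by Cheng-Prusoff using Scatchard-derived KD, from at least two independent experiments.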

[2] = biological target: T1, human vasopressin V1a receptor; test: Functional assay on human vasopressin V1a receptor expressing cell line (intracellular Ca2+ fluorescence); format: cell-based; details: 1321N1 cells, (Arg8)-vasopressin at EC80; read-out: IC50 (nM) on hV1a cell line

T1 sequence (P37288 whole entry): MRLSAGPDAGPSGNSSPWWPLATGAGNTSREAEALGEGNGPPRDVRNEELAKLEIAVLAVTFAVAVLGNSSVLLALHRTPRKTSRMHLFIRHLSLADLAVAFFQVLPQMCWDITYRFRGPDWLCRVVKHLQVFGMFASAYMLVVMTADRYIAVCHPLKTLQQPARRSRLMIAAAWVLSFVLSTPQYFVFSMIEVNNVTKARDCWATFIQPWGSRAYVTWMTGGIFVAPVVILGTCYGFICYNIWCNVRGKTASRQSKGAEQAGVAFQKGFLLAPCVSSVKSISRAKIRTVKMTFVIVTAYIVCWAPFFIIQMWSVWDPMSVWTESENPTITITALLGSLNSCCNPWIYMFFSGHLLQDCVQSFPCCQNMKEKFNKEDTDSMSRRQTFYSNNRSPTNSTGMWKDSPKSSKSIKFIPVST

`C=CC(=O)N[C@H]1Cc2cc(Cl)ccc2-n2c(nnc2[C@H]2CC[C@H](Oc3ccccn3)CC2)C1` [Example 98, N-{(5S)-8-chloro-1-[trans-4-(pyridin-2-yloxy)cyclohexyl]-5,6-dihydro-4H-[1,2,4]triazolo[4,3-a][1]benzazepin-5-yl}prop-2-enamide] was tested, and the Ki [1] was 2.1 nM and the IC50 [2] was 39 nM.

`O=C1Cc2ccccc2-n2c(nnc2[C@H]2CC[C@H](Oc3ccccn3)CC2)C1` [Example 102, 1-[trans-4-(pyridin-2-yloxy)cyclohexyl]-4H-[1,2,4]triazolo[4,3-a][1]benzazepin-5(6H)-one] was tested, and the Ki [1] was 5.9 nM and the IC50 [2] was 23 nM.

Work on `CC(C)OC1Cc2cc(Cl)ccc2-n2c(nnc2[C@H]2CC[C@H](Oc3ccccn3)CC2)C1` (stereo partly drawn) [Example 105, 8-chloro-5-(propan-2-yloxy)-1-[trans-4-(pyridin-2-yloxy)cyclohexyl]-5,6-dihydro-4H-[1,2,4]triazolo[4,3-a][1]benzazepine] yielded a Ki [1] of 0.3 nM and an IC50 [2] of 1.4 nM.

In the case of `Clc1ccc2c(c1)CC1(Cc3nnc([C@H]4CC[C@H](Oc5ccccn5)CC4)n3-2)OCCCCO1` [Example 106, 8′-chloro-1′-[trans-4-(pyridin-2-yloxy)cyclohexyl]-4°,6′-spiro[1,3-dioxepane-2,5′-[1,2,4]triazolo[4,3-a][1]benzazepine]], the Ki [1] is reported as 0.1 nM and the IC50 [2] is reported as 1.8 nM.

With `OC1Cc2ccccc2-n2c(nnc2[C@H]2CC[C@H](Oc3ccccn3)CC2)C1` (stereo partly drawn) [Example 107, 1-[trans-4-(pyridin-2-yloxy)cyclohexyl]-5,6-dihydro-4H-[1,2,4]triazolo[4,3-a][1]benzazepin-5-ol] the Ki [1] was 1 nM and the IC50 [2] was 12 nM.

`O=C([C@H]1CC[C@H](c2nnc3n2-c2ccc(Cl)cc2CC2(C3)OCCO2)CC1)N1CCOCC1` [Example 108, Trans-4-(8′-chloro-4′H,6′H-spiro[1,3-dioxolane-2,5′-[1,2,4]triazolo[4,3-a][1]benzazepin]-1′-yl)cyclohexyl(morpholin-4-yl)methanone] gave a Ki [1] of 0.2 nM and an IC50 [2] of 4.9 nM.

Compound `COC1Cc2ccccc2-n2c(nnc2[C@H]2CC[C@H](Oc3ccccn3)CC2)C1` (stereo partly drawn) [Example 109, 5-methoxy-1-[trans-4-(pyridin-2-yloxy)cyclohexyl]-5,6-dihydro-4H-[1,2,4]triazolo[4,3-a][1]benzazepine] has a Ki [1] of 0.4 nM and an IC50 [2] of 2.7 nM.

`O=C1Cc2cc(F)ccc2-n2c(nnc2[C@H]2CC[C@H](Oc3ccccn3)CC2)C1` [Example 110, 8-fluoro-1-[trans-4-(pyridin-2-yloxy)cyclohexyl]-4H-[1,2,4]triazolo[4,3-a][1]benzazepin-5(6H)-one] was tested, and the Ki [1] was 2.1 nM and the IC50 [2] was 8.3 nM.

With `OC1Cc2cc(F)ccc2-n2c(nnc2[C@H]2CC[C@H](Oc3ccccn3)CC2)C1` (stereo partly drawn) [Example 111, 8-fluoro-1-[trans-4-(pyridin-2-yloxy)cyclohexyl]-5,6-dihydro-4H-[1,2,4]triazolo[4,3-a][1]benzazepin-5-ol] the Ki [1] was 0.3 nM and the IC50 [2] was 2.4 nM.

Compound `CC(C)(C)OC(=O)NC1Cc2cc(Cl)ccc2-n2c(nnc2[C@H]2CC[C@H](N3CCOCC3)CC2)C1` (stereo partly drawn) [Example 112, Tert-butyl {8-chloro-1-[trans-4-(morpholin-4-yl)cyclohexyl]-5,6-dihydro-4H-[1,2,4]triazolo[4,3-a][1]benzazepin-5-yl}carbamate] has a Ki [1] of 45.4 nM and an IC50 [2] of 213 nM.

In the case of `NC1Cc2cc(Cl)ccc2-n2c(nnc2[C@H]2CC[C@H](N3CCOCC3)CC2)C1` (stereo partly drawn) [Example 113, 8-chloro-1-[trans-4-(morpholin-4-yl)cyclohexyl]-5,6-dihydro-4H-[1,2,4]triazolo[4,3-a][1]benzazepin-5-amine], the Ki [1] is reported as 21 nM and the IC50 [2] is reported as 305 nM.

In the case of `CC(C)NC1Cc2cc(Cl)ccc2-n2c(nnc2[C@H]2CC[C@H](N3CCOCC3)CC2)C1` (some centres unmarked) [Example 114], the Ki [1] is reported as 26.5 nM and the IC50 [2] is reported as 205 nM.

In the case of `CC(C)N1CC[C@]2(CC[C@@H](c3nnc4n3-c3ccc(Cl)cc3CC3(C4)OCCO3)CC2)C1=O` [Example 115], the Ki [1] is reported as 0.5 nM and the IC50 [2] is reported as 0.8 nM.
